Assay results taken from patent US7314633B2, “Carboxylate-gated-nitroxide (CGN) compounds and compositions and methods of use thereof” (SynZyme Technologies LLC, priority 2001, dated 2008).

Legend:
[1] = In vivo plasma half-life by EPR, co-administration of 14N E-TOPS and 15N Tempol
Description: Plasma half-life is measured by collecting the spectrum each minute for 60 to 90 minutes.

[2] = gold standard, previously shown; cited from earlier work
[3] = Acute toxicity LD50 / survival rate in mice; assay type: in vivo; conditions: mouse, in vivo
Description: (§1) As noted above, the practical, clinical application of unbound, small molecule nitroxides has been limited by the reduced activity in vivo and comparatively short in vivo half-life. The result of the reduced in vivo half-life is the need to administer a larger dose to achieve the same therapeutic or diagnostic effect.

mice = test: Acute toxicity LD50 / survival rate in mice; assay type: in vivo; conditions: mice, dosage of 2.0 mmol/kg
Description: as §1

[4] = tested on: cultured rat cortical neurons; test: Hemoglobin toxicity in cultured rat cortical neurons (MTT); assay type: cell-based; conditions: hemoglobin 10 uM, 24 hours
Description: E-TOPS is neuroprotective in a model of hemorrhagic transformation in stroke. Primary neuronal cultures were made from forebrains of fetal rat pups (embryonic day 15). The cells were dispersed by repeated mechanical trituration in neuronal culture medium (MEM Eagle (Sigma, M4526), supplemented with glutamine (2 mM), penicilin-streptomycine (50 Units/ml-0.05mg/ml), heat-inactivated horse serum (10%), fetal bovine serum (10%), glucose (0.5% or 28 mM). Following centrifugation (900 g; 5 min), the cells were placed onto poly-L-lysine-coated 96 well plates at a density of […]. Hemoglobin in saline was added at 10 uM final concentration and ETOPS were added at 10 uM, 1 uM, and 0.1 uM final concentration. 24 hours after incubation neuronal viability was quantitatively determined using the colorimetric MTT assay. MTT was added to each well such that the final concentration of the dye was 0.15 mg/ml. Plates were then returned to the incubator for 1 hour at which time unincorporated MTT was removed, and the plates allowed to air dry. The purple formazan product present in viable cells was then dissolved by adding acidified isopropanol (with 0.1 N HCl in) and the absorbance intensity (540 nm) was measured using a 96 well plate reader. % Control=(Test A540/Mean Control)×100%.

[5] = tested on: cultured rat cortical neurons; test: SIN-1 (peroxynitrite generator) toxicity in cultured rat cortical neurons (MTT); assay type: cell-based; conditions: SIN-1 1 mM, compound added 15 minutes prior
Description: Primary neuronal cultures were made from forebrains of fetal rat pups (embryonic day 15). The cells were dispersed by repeated mechanical trituration in neuronal culture medium (MEM Eagle (Sigma, M4526), supplemented with glutamine (2 mM), penicilin-streptomycine (50 Units/ml-0.05 mg/ml), heat-inactivated horse serum (10%), fetal bovine serum (10%), glucose (0.5% or 28 mM). Following centrifugation (900 g; 5 min), the cells were placed onto poly-L-lysine-coated 96 well plates at a density of […]. Cytotoxicity was induced in the cells according to a published procedure (Carroll et al 2000). SIN-1 (3-morpholinosydnonimine, Sigma), a PN generator, was dissolved in 50 mM phosphate (pH 5.0) just prior to use, and added to each well to give the final concentration of 1 mM. […] Neuronal viability was quantitatively determined using the colorimetric MTT assay. MTT was added to each well such that the final concentration of the dye was 0.15 mg/ml. Plates were then returned to the incubator for 1 hour at which time unincorporated MTT was removed, and the plates allowed to air dry. The purple formazan product present in viable cells was then dissolved by adding acidified isopropanol (with 0.1 N HCl in) and the absorbance intensity (540 nm) was measured using a 96 well plate reader. % Control=(Test A540/Mean Control)×100%.

[6] = Water/octanol partition measured by EPR; assay type: physicochemical; conditions: 15 minutes, TOPS = presumed product after NaOH hydrolysis of DE-TOPS
Description: (§2) After 15 minutes, a 40 μl sample of water or oil was taken for EPR spectral analysis. […] The solution was neutralized with hydrochloric acid and added to 1 ml of water and 2 ml of octanol. The mixture was allowed to partition, and after 15 minutes, a 40 μl sample of water or oil was taken for EPR spectral analysis. EPR spectral were taken using a Varian E9 spectrophotometer. Sweep width was 100 G, frequency was 9.535 GHz, microwave power was […] and the modulation frequency was 100 Hz.

[7] = Inhibition of peroxynitrite-dependent nitration of HPA; assay type: biochemical; conditions: 1 mM HPA, 1 mM peroxynitrite, pH 6.5
Description: Peroxynitrite was made by a procedure described previously. Solution of 1 mM 4-hydroxyphenylacetic acid (HPA, Sigma) were made in 100 mM sodium phosphate at pH 6.5. […] Peroxynitrite was added at a final concentration of 1 mM to start the nitration. […] The nitration was followed spectrophotometrically at 405 nm. The concentration of 4-hydroxy-3-nitrophenylacetate was determined spectrophotometrically (430=4400 M^−1 cm^−1) after the pH of reaction mixtures were increased to 10-11 with NaOH.

[8] = Chemical hydrolysis of esters by NaOH or KOH, followed by EPR; assay type: physicochemical; conditions: sodium hydroxide (NaOH), aqueous, EPR pre- and post-hydrolysis
Description: as §2
20 mg of ^14N-^15N-TE-TOPS was mixed in 1 ml of 10 mM KOH and allowed to incubate overnight at room temperature. The solution was neutralized with hydrochloric acid. EPR spectral were taken using a Varian E9 spectrophotometer. Sweep width was 100 G, frequency was 9.535 GHz, microwave power was […] and the modulation frequency was 100 Hz.

hairless mice = tested on: hairless mice
Description: Topical application was daily 10 minutes prior to UVB radiation. UVB dose was 200 mJ/cm2 during 15 minutes. UVB lamp has spectrum distribution of 290-310 nm at 80% below 310 nm at 20%.
Same protocol as in example 13 was used for this study.

[9] = Metabolism and excretion after topical application (EPR of urine and plasma); assay type: in vivo, mouse; conditions: after 6 hours; 10 day daily topical application
Rhino mouse = test: Anti-wrinkle effect in Rhino mouse exposed to UVB; assay type: in vivo; conditions: compared with Retin-A
Description: To determine the advantage of CGN compared to commercially available topical therapies, BE-TOPS, Retin-A, and a placebo were administered to the skin of mice exposed to alternate days of UVB radiation.

[10] = S-band EPR imaging of penetration and compartmentalization in human skin; assay type: in vivo; conditions: human volunteer forearm, 3 μL 100 mM in DMSO, topical, by eight hours
Description: Preliminary S-band EPR spectroscopy and imaging experiments using DETOPS were performed on the skin of a human volunteer. […] Five minutes later, when the deposited solution dried, a specially designed positioning holder with a 7 mm diameter well and bottom disk that locked into a well in the resonator cap was attached to the skin to fix this region of skin to the surface resonator See, “In vivo EPR Imaging of a Distribution and Metabolism of Nitroxide Radicals in Human Skin,” He et al., J. of Magnetic Resonance 148, 155-164 (2001). EPR and EPRI measurements were then started. Measurements on the volunteer were performed for 15 to 20 minutes periods after which there were 30-minute rest periods in which the volunteer removed the arm from the resonator and the magnet. This holder fixed the skin positioning and assured a constant filling factor of the loaded resonator. The positioning holder was left attached to the arm for the entire series of measurements lasting up to 8 hours.
Referring to FIG. 23, a color-coded image of CNO penetration and compartmentalization in human skin is shown. […] The measurements were performed using S-band (2.2 GHz) EPR imaging system with a specially designed surface resonator as described in He et al., J. of Magnetic Resonance 148, 155-164 (2001). The dotted line marks the surface of the skin. […]

human Y-79 cells = test: TNF-α induced apoptosis of Y-79 cells (annexin V flow cytometry); assay type: cell-based; conditions: Y-79 cell line, E-TOPS 100 μg/ml, TNF-α 5.0 ng/ml, 6, 24 and 48 hours
Description: The UV light induced apoptosis may be measured by a model in which apoptosis is induced by exposure to tumor necrosis factor alpha (TNF-α). […] Cultured human Y-79 cells were maintained at pH 7.4 in culture flasks in a mixture of amphotericin/penicillin/streptomycin treated (1% v/v) RPMI 1640 media with L-glutamine and 10% fetal bovine serum in an incubator under 10%-CO2/90%-air brood conditions at 37 degrees Celsius and 20% humidity. […] From this stock solution, 10 μl was added to 1 ml of the cell suspension solution so that the final concentration of ETOPS was 100 μg/ml of ETOPS. Human TNF-μ(10 μg/1 ml) was used to prepare serial media dilutions to obtain TNF-α concentrations of 5.0 ng/ml. Cell densities and viability were determined by trypan blue exclusion assay on a Zeiss inverted microscope to ensure cell concentrations prior to cytometric assaying. […]
Flow cytometric methods were employed to take advantage of annexin V's reversible and calcium-dependent binding to negatively charged phosphatidylserine (PS) residues in a 1:50 annexin to PS ratio. […] Total samplings averaged 5000 cell events counted out of sample populations averaging well over 1.0×10^6 cells/ml with statistics and regression analysis given for each set of sample quadrants using CellQuest softvare. […]

CC1(C)CC(O)CC(C)(C)N1[O] [Tempol, 4-hydroxy-2,2,6,6-tetramethylpiperidine-1-oxyl]
half-life ([1]; mouse, in vivo, ip, 80 mg/kg): > 40 min | prevention of nitration of HPA by peroxynitrite in vitro [2]: prevent the nitration | LD50 [3]: 375 mg/kg | survival rate (mice): zero survival rate

CC1(C)CC(=C(CC(=O)O)C(=O)O)CC(C)(C)N1[O] [TOPS, 2,2,6,6-tetramethyl-1-oxyl-piperidinene-4-succinate]
inhibition of hemoglobin-induced toxicity of cortical neurons [4]: dose dependent inhibition | inhibition of peroxynitrite-induced (SIN-1) toxicity on cortical neurons [5]: dose dependent inhibition | partition coefficient (LogP) [6]: −0.9 | inhibition of nitration of HPA by peroxynitrite [7]: inhibited

CCOC(=O)CC(C(=O)OCC)=C1CC(C)(C)N([O])C(C)(C)C1 [DE-TOPS, Di-ethyl-2,2,6,6-tetramethyl-1-oxy-4-piperidylidene-succinate]
hydrolysis of DE-TOPS to TOPS [8]: near complete conversion | inhibition of hemoglobin-induced toxicity of cortical neurons [4]: dose dependent inhibition | skin thickening induced by UVB (histopathology) (hairless mice; 100 mM in petroleum base, topical daily 10 minutes prior to UVB, 11 days, 200 mJ/cm2): dramatically reduces skin thickening | UVB light induced skin thickening, hemorrhage, inflammation (hairless mice; applying pre and post radiation in mice): reduces UVB light induced skin thickening, hemorrhage, inflammation | UVB induced skin lesion, chronic (hairless mice; same mice kept for 4 month, applied 2 hour before UVB radiation): inhibited | inhibition of peroxynitrite-induced (SIN-1) toxicity on cortical neurons [5]: dose dependent inhibition | EPR signal in urine compared with plasma [9]: stronger EPR signal | UVB sensitivity of treated skin (Rhino mouse): not UVB sensitive | partition coefficient (LogP) [6]: 1.7 | distribution in skin layers compared to tempone (1-D EPR spatial image) [10]: enhanced visual distribution throughout the dermis and epidermis | inhibition of nitration of HPA by peroxynitrite [7]: inhibited

monoethyl-2,2,6,6-tetramethyl-1-oxy-4-piperidylidene-succinate [E-TOPS]
inhibition of hemoglobin-induced toxicity of cortical neurons [4]: dose dependent inhibition | neuronal viability ([4]; ETOPS at 10 uM, 1 uM, 0.1 uM): increased neuronal viability | in vivo half-life compared to Tempol ([1]; intravenous, intramuscular, oral and intraperitoneal administration at 200 mg/kg): increased in vivo half-life compared to Tempol | in vivo plasma half-life compared to Tempol ([1]; mice, administered orally, 125 mg/kg E-TOPS and 80 mg/kg Tempol): extended | in vivo plasma half-life compared to Tempol ([1]; mice, co-administrated intravenously): extended | time with substantially higher activity than Tempol in plasma ([1]; mice, i.p., 125 mg/kg E-TOPS co-administered with Tempol): at least 80 minutes | in vivo plasma half-life compared to Tempol ([1]; mice, intramuscular co-administration): dramatically extended over Tempol for at least 60 minutes | inhibition of peroxynitrite-induced (SIN-1) toxicity on cortical neurons [5]: dose dependent inhibition | apoptosis induced by TNF-α (human Y-79 cells): reduces apoptosis | inhibition of nitration of HPA by peroxynitrite [7]: inhibited
